Measured values as given in patent US9145445B2 (priority 2003, dated 2015).
Several values for one entry are separate records, joined by “and”; a condition that tells them apart may be missing. Equal entries are not always repeated. Where two headings read alike, the source gives them in different places. Where a SMILES comes first, the peptide text is derived from it.

Key:
[1] = tested on: purified Pertussis Toxin; experiment: binding of purified PT to peptides immobilized on streptavidin sepharose; set-up: species or system Bordetella pertussis; conditions: ~200 pmol peptide on streptavidin sepharose, 100 pmol purified PT, gel, silver staining
Sequence of purified Pertussis Toxin (P04977 35-269 limits assumed): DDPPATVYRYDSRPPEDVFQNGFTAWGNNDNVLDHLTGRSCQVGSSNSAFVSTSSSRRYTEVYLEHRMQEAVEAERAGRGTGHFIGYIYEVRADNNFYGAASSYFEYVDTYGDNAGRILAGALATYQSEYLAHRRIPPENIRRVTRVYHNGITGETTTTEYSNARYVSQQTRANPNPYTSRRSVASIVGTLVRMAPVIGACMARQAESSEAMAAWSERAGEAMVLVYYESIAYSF
Sequence of purified Pertussis Toxin (P04978 28-226 limits assumed, further chain): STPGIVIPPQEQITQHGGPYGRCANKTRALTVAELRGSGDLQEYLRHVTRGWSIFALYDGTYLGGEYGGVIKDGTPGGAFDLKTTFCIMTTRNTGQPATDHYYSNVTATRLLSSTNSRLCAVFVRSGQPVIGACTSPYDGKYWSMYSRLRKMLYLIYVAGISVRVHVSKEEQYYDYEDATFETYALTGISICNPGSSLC
Sequence of purified Pertussis Toxin (P04979 29-227 limits assumed, further chain): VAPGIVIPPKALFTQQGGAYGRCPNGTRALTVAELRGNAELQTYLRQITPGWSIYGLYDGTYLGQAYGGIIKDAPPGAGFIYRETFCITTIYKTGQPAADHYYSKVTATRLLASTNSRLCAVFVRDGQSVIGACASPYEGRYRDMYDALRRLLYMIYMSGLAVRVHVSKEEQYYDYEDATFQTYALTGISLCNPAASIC
Sequence of purified Pertussis Toxin (P0A3R5 43-152 limits assumed, further chain): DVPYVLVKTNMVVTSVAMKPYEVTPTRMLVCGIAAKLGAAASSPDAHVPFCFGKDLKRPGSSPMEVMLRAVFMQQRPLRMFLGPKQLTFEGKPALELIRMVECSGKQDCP
Sequence of purified Pertussis Toxin (P04981 35-133 limits assumed, further chain): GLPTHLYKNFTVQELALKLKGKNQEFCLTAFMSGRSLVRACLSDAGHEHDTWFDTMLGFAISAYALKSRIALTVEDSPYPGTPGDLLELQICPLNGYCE

[2] = tested on: PT immobilized on Streptavidin beads
Sequence of PT immobilized on Streptavidin beads (P04977 35-269 limits assumed): as the sequence (P04977 35-269 limits assumed) above
Sequence of PT immobilized on Streptavidin beads (P04978 28-226 limits assumed, further chain): as the sequence (P04978 28-226 limits assumed, further chain) above
Sequence of PT immobilized on Streptavidin beads (P04979 29-227 limits assumed, further chain): as the sequence (P04979 29-227 limits assumed, further chain) above
Sequence of PT immobilized on Streptavidin beads (P0A3R5 43-152 limits assumed, further chain): as the sequence (P0A3R5 43-152 limits assumed, further chain) above
Sequence of PT immobilized on Streptavidin beads (P04981 35-133 limits assumed, further chain): as the sequence (P04981 35-133 limits assumed, further chain) above

[3] = tested on: PT immobilized on a CM5 chip; format: binding, Bordetella pertussis
Sequence of PT immobilized on a CM5 chip (P04977 35-269 limits assumed): as the sequence (P04977 35-269 limits assumed) above
Sequence of PT immobilized on a CM5 chip (P04978 28-226 limits assumed, further chain): as the sequence (P04978 28-226 limits assumed, further chain) above
Sequence of PT immobilized on a CM5 chip (P04979 29-227 limits assumed, further chain): as the sequence (P04979 29-227 limits assumed, further chain) above
Sequence of PT immobilized on a CM5 chip (P0A3R5 43-152 limits assumed, further chain): as the sequence (P0A3R5 43-152 limits assumed, further chain) above
Sequence of PT immobilized on a CM5 chip (P04981 35-133 limits assumed, further chain): as the sequence (P04981 35-133 limits assumed, further chain) above

[4] = tested on: PT; experiment: stability of PT/peptide complexes, BIAcore 2000; format: binding, Bordetella pertussis; conditions: for pH range stability of the complex (stable): PT/peptide complex, instable at pH 2.5 or 10.5
Sequence of PT (P04977 35-269 limits assumed): as the sequence (P04977 35-269 limits assumed) above
Sequence of PT (P04978 28-226 limits assumed, further chain): as the sequence (P04978 28-226 limits assumed, further chain) above
Sequence of PT (P04979 29-227 limits assumed, further chain): as the sequence (P04979 29-227 limits assumed, further chain) above
Sequence of PT (P0A3R5 43-152 limits assumed, further chain): as the sequence (P0A3R5 43-152 limits assumed, further chain) above
Sequence of PT (P04981 35-133 limits assumed, further chain): as the sequence (P04981 35-133 limits assumed, further chain) above
Protocol: The stability of PT/peptide complexes were investigated using the BIAcore 2000 instrument under different pH and salt conditions that were shown before not to interfere with the PT hexamer stability. 500-1000 RU of the synthetic peptides were immobilized on BIAcore streptavidin chips. To allow binding of PT to the immobilized peptides, 20 nM purified PT in HEPES buffer was injected for 1 minute. After equilibration with HBS/EP running buffer (0.01 M HEPES pH 7.4, 0.15 M NaCl 3 mM EDTA 0.005% polysorbate 20 (v/v)) the PT/peptide complexes were washed by injection of • (a) 100 mM carbonate buffer at pH 10.5 and 9.5 • (b) 10 mM acetate buffer at pH 5.5, 5.0, 4.5, and 4.0 • (c) 10 mM glycine buffer at pH 3.0 and 2.5 • (d) 0.5, 1.0, 1.5, 2.0 M NaCl in 10 mM acetate buffer, pH 6.0, • (e) 0.5, 1.0, 1.5, 2.0 M NaCl in 50 mM Tris/HCl buffer, pH 8.5, • (f) 0.5, 1.0, 1.5, 2.0 M KCl in 10 mM acetate buffer, pH 6.0, • (g) 0.5, 1.0, 1.5, 2.0 M KCl in 50 mM Tris/HCl buffer, pH 8.5, • (h) 0.5, 1.0, 1.5, 2.0 M NaCl in 10 mM acetate buffer, pH 6.0, • (i) 0.5, 1.0, 1.5, 2.0 M NaCl in 50 mM Tris/HCl buffer, pH 8.5.
After the end of each buffer injection, the chip was equilibrated with HBS/EP running buffer. The loss of PT hexamer on the chip under the applied buffer conditions (difference of measured RU signal before and after buffer injection) reflects the PT/peptide complex stability.

[5] = tested on: PT; experiment: estimation of peptides binding capacity (fraction of binding active peptide); set-up: species or system Bordetella pertussis; conditions: 20 pmol sepharose-immobilized peptide, 100 pmol PT (500 nM); 1:1 binding assumed
Protocol: For estimation of peptides binding capacity 20 pmol of sepharose-immobilized peptides were incubated with an excess of 100 pmol PT in a volume of 200 μl HEPES buffer (corresponds to 500 nM PT). After washing, the fraction of peptide-streptavidin sepharose bound PT was quantified by gel analysis. This allows directly to calculate the fraction of binding active peptide under the applied conditions (assuming the PT/peptide binding ratio is 1:1). Under the assumption that a concentration of 500 nM PT is high enough to reach Bmax for all peptides. The values presented therein are estimations for the expectable binding capacities of the peptides. An exact evaluation of binding capacity (Bmax) and dissociation constant (KD) of the most suitable binder may also be performed.

[6] = tested on: PT; conditions: phage display, Bogdan, et al.; cited from earlier work
[7] = tested on: PT; format: binding, Bordetella pertussis; conditions: input of 400 pmol peptide to 1 μl streptavidin sepharose
[8] = tested on: PT; experiment: reutilization of peptide sepharose for repeated PT binding and elution; set-up: species or system Bordetella pertussis; conditions: 4 cycles of PT binding, carbonate pH 10.5 elution, 10 mM HCl regeneration
Protocol: For binding of PT each peptide streptavidin sepharose was incubated with 400 μl sample B (adjusted to pH 7.0-7.5 by addition of HC1) for 1 hour at RT and washed 4 times with 50 mM Tris/HC1, pH 7.5 (each 200 μl). PT was eluted by 4 consecutive elutions with 100 mM Carbonate buffer at pH 10.5 (each 20 μl). Subsequently the column matrices were regenerated by three washes with 10 mM HC1 (l×20 μl, 2×100 μl) and afterwards neutralized by two washes with 200 μl 50 mM Tris/HC1, pH 7.5. This binding, elution and regeneration procedure was applied to the peptide sepharose for three additional times. […] (FIG. 25). • 5. Large-scale FPLC-Purification of PT

[9] = tested on: chip immobilized biotinylated PT; conditions: BIAcore streptavidin chip
Sequence of chip immobilized biotinylated PT (P04977 35-269 limits assumed): as the sequence (P04977 35-269 limits assumed) above
Sequence of chip immobilized biotinylated PT (P04978 28-226 limits assumed, further chain): as the sequence (P04978 28-226 limits assumed, further chain) above
Sequence of chip immobilized biotinylated PT (P04979 29-227 limits assumed, further chain): as the sequence (P04979 29-227 limits assumed, further chain) above
Sequence of chip immobilized biotinylated PT (P0A3R5 43-152 limits assumed, further chain): as the sequence (P0A3R5 43-152 limits assumed, further chain) above
Sequence of chip immobilized biotinylated PT (P04981 35-133 limits assumed, further chain): as the sequence (P04981 35-133 limits assumed, further chain) above
Description: The quality of the biotinylation reaction was controlled by analysis of the interaction of biotinylated PT with a BIAcore streptavidin chip using BIAcore instrument (BIAcore 2000).

[10] = tested on: PT; format: binding, Bordetella pertussis

## SGCVKKDELCELAIDECCEPLECTKGDLGFRKCG [gurmarin 19n]
[1]
  binding to purified PT: clear binding

## MHHHHHHSGSSSGSGCVKKDELCELAVDECCEPLECFQMGHGFKRCGSGSSGSS [gurmarin variant 10]
[2]
  target binding to PT in the presence of AP process fluids: not influenced

## CC[C@H](C)[C@H](NC(=O)[C@H](CO)NC(=O)[C@H](CC(C)C)NC(=O)[C@H](CCCNC(=N)N)NC(=O)[C@H](CO)NC(=O)[C@H](CCCNC(=N)N)NC(=O)[C@H](Cc1c[nH]cn1)NC(=O)[C@@H]1CCCN1C(=O)[C@H](CCCNC(=N)N)NC(=O)[C@H](CC(=O)O)NC(=O)[C@H](Cc1c[nH]c2ccccc12)NC(=O)CNC(=O)[C@@H](NC(=O)[C@H](CC(=O)O)NC(=O)[C@H](Cc1ccc(O)cc1)NC(=O)[C@H](Cc1c[nH]c2ccccc12)NC(=O)[C@@H](NC(=O)[C@H](CCC(=O)O)NC(=O)[C@H](CC(N)=O)NC(=O)[C@H](CC(C)C)NC(=O)[C@@H]1CCCN1C(=O)[C@@H](NC(=O)[C@@H](NC(=O)[C@H](CC(N)=O)NC(=O)[C@H](CO)NC(=O)[C@H](CCCNC(=N)N)NC(=O)COCCOCCNC(=O)CCCC[C@@H]1SC[C@@H]2NC(=O)N[C@@H]21)C(C)C)[C@@H](C)CC)C(C)C)[C@@H](C)O)C(=O)N[C@@H](CC(=O)O)C(=O)N[C@@H](CC(=O)O)C(=O)N[C@@H](CC(=O)O)C(=O)N[C@@H](C)C(=O)O [pp26 9n] (HELM PEPTIDE1{[O=C1N[C@H]2[C@H](CS[C@H]2CCCCC(=O)[*:2])N1].[O=C(COCCOCCN[*:1])[*:2]].R.S.N.V.I.P.L.N.E.V.W.Y.D.T.G.W.D.R.P.H.R.S.R.L.S.I.D.D.D.A}$$$$V2.0)
[3]
  Association rate constant kon: 130000 M⁻¹ s⁻¹
  Dissociation rate constant koff: 10^−3 s^−1

## MGRGSHHHHHHARSSHCRHRNCHTITRGNMRIETPNNIRKDANAPKASAI [PP26 variant 5]
[2]
  target binding to PT in the presence of AP process fluids: not reduced

## RSWRDTRKLHMRHYFPLAIDSYWDHTLRDA [pp26 15n]
[4]
  pH range stability of the complex (stable): 3-9 pH
[4]; pH 6
  KCl stability of the complex (stable): 2 M
  MgCl2 stability of the complex (stable): to 2M
  NaCl stability of the complex (stable): 2 M
[4]; pH 8.5
  KCl stability of the complex (stable): 2 M
  MgCl2 stability of the complex: complete elution: not
  NaCl stability of the complex (stable): 2 M
[4]; pH 8.5 (50 mM Tris/HCl)
  MgCl2 stability of the complex: Elution / destabilized: Elution ≧1.5, M
[5]
  Fraction of binding active peptide: >12.5%
[1]
  binding to purified PT: clear binding

## Pertussis toxin [PT]
BIAcore, buffers pH 2-10.5
  pH range over which Pertussis toxin hexamer is stable: 2.5-10.5 pH
pH 2
  PT hexamer stability (%): 93%
pH 2.5
  PT hexamer stability (%): 98%
pH 3
  PT hexamer stability (%): 100%
pH 4
  PT hexamer stability (%): 100%
pH 4.5
  PT hexamer stability (%): 100%
pH 5
  PT hexamer stability (%): 100%
pH 5.5
  PT hexamer stability (%): 100%
pH 8.5
  PT hexamer stability (%): 100%
pH 9.6
  PT hexamer stability (%): 98%
pH 10.5
  PT hexamer stability (%): 95%

## MHHHHHHSGSSSGSGCVKKDELCELAVDECCEPLECTKGDLGFRKCGSGSSGSS [gurmarin variant 19]
[2]
  target binding to PT in the presence of AP process fluids: not influenced

## MGRGSHHHHHHARSTMNTNRMDIQRLMTNHVKRDSSPGSIDANAPKASAI [PP26 variant 6]
[2]
  target binding to PT in the presence of AP process fluids: not reduced

## DGSFSGF [3G2]
[6]
  PT-binding capacity: PT-binding capacity

## NGSFSGF [3G5]
[6]
  PT-binding capacity: PT-binding capacity

## SGCVKKDELCSQSVPMCCEPLECKWFNENYGICGS [gurmarin 15n]
[4]
  pH range stability of the complex (stable): 3-9 pH
[4]; pH 6
  KCl stability of the complex (stable): sensitive to salt
  MgCl2 stability of the complex: Elution: Elution ≧1M,
  MgCl2 stability of the complex: complete elution: elution ≧2M
  NaCl stability of the complex (stable): sensitive to salt
[4]; pH 8.5
  KCl stability of the complex (stable): sensitive to salt
  MgCl2 stability of the complex: complete elution: elution ≧2M
  NaCl stability of the complex (stable): sensitive to salt
[1]
  binding to purified PT: clear binding
[7]
  Amount of elutable peptide (effectively bound fraction of peptide): 50 pmol
[8]
  reusability of peptide loaded sepharose: may be re-utilized

## RSSHCRHRNCHTITRGNMRIETPNNIRKDA [pp26 5n]
[5]
  Fraction of binding active peptide: > 5%
[1]
  binding to purified PT: clear binding

## SGCVKKDELCARWDLVCCEPLECIYTSELYATCG [gurmarin 9n]
[4]
  NaCl in buffer that interferes with PT/peptide complex stability: 2.5 M
  pH range stability of the complex (stable): 3-9 pH
[4]; pH 8.5
  KCl stability of the complex (stable): strong sensitive to salt
  NaCl stability of the complex (stable): strong sensitive to salt
[5]
  Fraction of binding active peptide: >12.5%
[1]
  binding to purified PT: clear binding

## asialofetuin
[9]
  binding signal to immobilized PT: ~400 RU
  unspecific binding to the control cell: ~100 RU
[10]
  Amount of PT bound: ~8 pmol and ~16 pmol

## SGCVKKDELCELAVDECCEPLECFQMGHGFKRCG [gurmarin 10n]
[5]
  Fraction of binding active peptide: > 5%
[1]
  binding to purified PT: clear binding

## MGRGSHHHHHHARSNVIPLNEVWYDTGWDRPHRSRLSIDDDANAPKASAI [PP26 variant 9]
[2]
  target binding to PT in the presence of AP process fluids: not reduced

## MHHHHHHSGSSSGSGCVKKDELCARWDLVCCEPLECIYTSELYATCGSGSSGSS [gurmarin variant 9]
[2]
  target binding to PT in the presence of AP process fluids: not influenced

## RSSHCRHRNCHTITRGNMRIETPNNIRKDAK [pp26 5c]
[1]
  binding to purified PT: clear binding

## NGSFSGC [3G8]
[6]
  PT-binding capacity: PT-binding capacity
